The text below walks through data of publication PMC2903571, “Sterol carrier protein-x gene and effects of sterol carrier protein-2 inhibitors on lipid uptake in Manduca sexta” (BMC Physiology, 2010).

Where a name gives a salt, the structure may show the parent alone.

Series [1] deals with T1, MsSCP-2 (Manduca sexta, UniProt D8VD27). Kind of series: biochemical.
Procedure: (§5) The inhibitory effect of SCPI on cholesterol binding to MsSCP-2 was measured using NBD-cholesterol competition assays. In a 50 μl reaction solution in each well of a 96-well plate purified recombinant MsSCP-2 (5 μM) was incubated with NBD-cholesterol (1.25 μM) in the presence of increased concentrations of a SCPI (0-12.5 μM) in 10 mM KHPO4 buffer (pH 7.4) for 5 min. The fluorescence intensity (excitation/emission = 470/530) of NBD-cholesterol was measured. The background control was NBD-cholesterol alone in 10 mM KHPO4 buffer (pH 7.4). A separate set of tests was performed using NBD-cholesterol with increasing concentrations of a SCPI to assess whether a SCPI interfered with NBD-cholesterol fluorescence. If a SCPI interfered with NBD-cholesterol fluorescence, the background control was NBD-cholesterol along with the SCPI. The net change in NBD-cholesterol fluorescence intensity was calculated by subtracting the fluorescence of the background control from the NBD-cholesterol-MsSCP-2 complex in the absence or presence of an inhibitor. The data were plotted with the relative NBD-cholesterol fluorescent intensity (bound NBD-cholesterol) as the y-axis and the molarities of the inhibitor as the x-axis. Bacterial GST protein and Aedes aegypti SCP-2 protein (AeSCP-2) were used as a negative control and a positive control for the assays, respectively.
The subject of another series is Day 3 4th instar larvae. Put plainly: Dietary uptake of NBD-cholesterol in larvae fed SCPIs. Particulars: mean ± S.D.
Series [2] addresses T2, AeSCP-2 (Aedes aegypti, UniProt Q86PR3).
T2 sequence (Q86PR3 1-110): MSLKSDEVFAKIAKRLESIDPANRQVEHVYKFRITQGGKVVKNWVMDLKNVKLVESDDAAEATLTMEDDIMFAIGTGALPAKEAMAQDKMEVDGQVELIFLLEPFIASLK
Put plainly: biochemical.
Procedure: as §5

Series [3] has as its system M. sexta Day 3 4th instar larvae. Put plainly: [3H]-palmitic acid uptake (label/chase) in larvae fed SCPIs. It counts as in vivo, Manduca sexta. Particulars: midgut tissue, 2-6 h post feeding. The protocol:
(§1) Collected tissue samples were stored at -80°C.
(§2) Student t-test was used in cases where a pair of treatments was compared to determine the significance of the differences.

For another series, the system named is Manduca sexta larvae. More on the design: method as in PMID 15627652. Particulars: cited from earlier work.
Series [4] has as its system M. sexta Day 3 4th instar larvae. Kind of series: [3H]-cholesterol uptake (label/chase) in larvae fed SCPIs. It counts as in vivo, Manduca sexta. Conditions: for suppression of cholesterol storage (stored [3H]-cholesterol) in the fat body: within 6 hours of treatment, versus controls; for accumulation of [3H]-cholesterol in the fat body versus controls: within 6 hours post feeding; for [3H]-cholesterol levels in the feces, higher than in the controls: within the 6 hour period; for amount of labeled cholesterol in the hemolymph: 2 to 6 hours post feeding; for hemolymph [3H]-cholesterol levels versus control: all post feeding time points; for total amount of [3H]-cholesterol in the midgut tissue versus controls: over the observed time period (2-6 h), two-way ANOVA. The method, then:
as §1, §2

For the next series, the system named is Manduca sexta GV1 cells. More on the design: method as in PMID 15627652. Conditions: 10 μM; cited from earlier work.
On the set-up of series [5]: method as in PMID 11566796. Conditions: cited from earlier work.
Details of series [6]: method as in PMID 6833881. Conditions: room temperature; cited from earlier work.
In a further series the test system is GST. Put plainly: NBD-cholesterol binding assay, GST (negative control). Further details: species or system bacterial. Particulars: negative control protein. The method, then: (§3) MsSCP-2 binding affinity for NBD-cholesterol, an analog of cholesterol, was determined using NBD-cholesterol binding assays. A 1 ml sample of 10 μM recombinant MsSCP-2 was diluted with 10 mM KHPO4 buffer (pH 7.4) to various concentrations (1 nM~10 μM). Twenty-five microliters of each concentration of MsSCP-2 solution and the control (without MsSCP-2) were thoroughly mixed with 25 μl of NBD-cholesterol solution (1 μM in KHPO4 buffer, pH 7.4) and allowed to equilibrate for 3 minutes to permit stable measurement of the fluorescence signal. NBD-cholesterol fluorescence was excited at 470 nm, and emission was recorded at 530 nm using a fluorescence microplate reader (Model: GeminiXPS, Molecular Devices). Data were fit using a simple, single binding site, non-linear regression model in GraphPad PRISM® software version 4.0 (GraphPad Software Inc., San Diego, CA) using the equation: [drawing 1]
(§4) Where, Kd is the binding affinity, X is the NBD-cholesterol concentration (μM), Y is the total binding (fluorescent intensity unit), and Bmax is the maximum specific binding to be fit. AeSCP-2 and GST were used as a positive control and a negative control, respectively. NBD-cholesterol binding assays for the controls were performed the same as described above for recombinant MsSCP-2.

Series [7] has as its target T2, AeSCP-2. Put plainly: NBD-cholesterol binding assay, AeSCP-2 (positive control). Particulars: NBD-cholesterol 1 μM, one site binding non-linear regression; read-out: binding affinity (Kd) of AeSCP-2 to NBD-cholesterol. The protocol:
as §3, §4

Series [8] has as its target T1, MsSCP-2. Kind of series: NBD-cholesterol binding assay, recombinant MsSCP-2. Conditions: NBD-cholesterol 1 μM, MsSCP-2 1 nM~10 μM, one site binding non-linear regression; read-out: binding affinity (Kd) of MsSCP-2 to NBD-cholesterol. The method, then:
as §3, §4

T1 sequence (D8VD27 entry or part of it): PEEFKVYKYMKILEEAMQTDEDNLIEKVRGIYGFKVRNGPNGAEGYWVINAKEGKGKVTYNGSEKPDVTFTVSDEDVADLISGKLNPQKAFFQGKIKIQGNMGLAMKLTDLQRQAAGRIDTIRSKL

Take `COc1cccc(-n2sc3c(c2=S)-c2cc(Cl)ccc2NC3(C)C)c1` [SCPI-2, 8-chloro-2-(3-methoxyphenyl)-4,4-dimethyl-4,5-dihydroisothiazol[5,4-c]quinoline-1(2H)-thione]: a half-maximal effect at MsSCP-2 [1] (EC50) was put at 900 nM. In the series on Day 3 4th instar larvae, the “NBD-cholesterol, fat body, 2 hour” value turned out to be 4.20±0.57 RFU/mg proteins; the “NBD-cholesterol, fat body, 4 hour” value is reported as 7.74±3.56 RFU/mg proteins; the “NBD-cholesterol, fat body, 6 hour” value came out at 9.05±4.09 RFU/mg proteins; the “NBD-cholesterol, hemolymph, 2 hour” value amounted to 4.93±1.26 RFU/mg proteins. Also, in the series on Day 3 4th instar larvae, the “NBD-cholesterol, hemolymph, 4 hour” value is 4.58±1.47 RFU/mg proteins; the “NBD-cholesterol, hemolymph, 6 hour” value is 3.89±0.98 RFU/mg proteins; the “NBD-cholesterol, midgut, 2 hour” value stood at 21.39±2.77 RFU/mg proteins; the “NBD-cholesterol, midgut, 4 hour” value is given as 21.45±3.55 RFU/mg proteins. Besides, the “NBD-cholesterol, midgut, 6 hour” value in the series on Day 3 4th instar larvae came out at 17.43±6.46 RFU/mg proteins. On AeSCP-2 [2], the half-maximal effective concentration (EC50) (in general, the concentration needed to bring the measured effect to its halfway point) was found to be 800 nM. Also, the “[3H]-palmatic acid uptake/levels in the midgut” value in series [3] was “suppressed”. Moreover, the “lethality to Manduca larvae” value with Manduca sexta larvae is “more lethal than SCPI-1”. In addition, in series [4], the “amount of [3H]-cholesterol in the midgut” value was 367836.9 DMP/mg protein; the “[3H]-cholesterol levels in the feces, higher than in the controls” value was 369.02%; the “hemolymph [3H]-cholesterol levels versus control” value was “significantly lower”. Besides, the “less stored [3H]-cholesterol in the fat body than for the SCPI-1-treatment” value in [4] (fat body, 6 hours post feeding) stood at 56%. For the same molecule, in series [4] (fat body), the “suppression of cholesterol storage (stored [3H]-cholesterol) in the fat body” value came out at 69% and the “accumulation of [3H]-cholesterol in the fat body versus controls” value was “significantly lower”. Also, the “amount of labeled cholesterol in the hemolymph” value in series [4] (SCPI at LD50 dosage in diet) was found to be 29564.4 DPM/mg protein. In addition, in [4] (midgut tissue), the “greater reduction in [3H]-cholesterol uptake/transport than the SCPI-1-treatment” value worked out at 46%. The “[3H]-cholesterol in the midgut tissue, % of the controls” value in [4] (midgut, 2 hour post feeding, SCPI at LD50 dosage in diet) amounted to 43.18%. Further, the “total amount of [3H]-cholesterol in the midgut tissue versus controls” value in [4] (midgut) was “significantly lower”. Further, the “suppression of cholesterol uptake” value with Manduca sexta GV1 cells is given as 22%.
Consider `CC(C)CCC[C@@H](C)[C@H]1CC[C@H]2[C@@H]3CC=C4C[C@@H](O)CC[C@]4(C)[C@H]3CC[C@]12C` [Cholesterol, cholesterol], for which the “flip-flop rate (t1/2) within the lipid bilayer” value in [5] was 1 to 2 min. Further, the solubility in water in series [6] is ~ 10 nM.
With `C[C@H](CNc1ccc([N+](=O)[O-])c2nonc12)[C@H]1CC[C@H]2[C@@H]3CC=C4C[C@@H](O)CC[C@]4(C)[C@H]3CC[C@]12C` [NBD-cholesterol, 22-(N-(7-nitrobenz-2-oxa-1,3-diazol-4-yl)amino)-23,24-bisnor-5-cholen-3β-ol], the “binding of GST to NBD-cholesterol” value with GST is listed as “little binding”. The dissociation constant (Kd) (as a rule, a measure of binding affinity in units of concentration) at AeSCP-2 [7] was found to be 820 nM; on MsSCP-2 [8] it was 1860 nM.
In turn, `CC(=O)Nc1ccc(Nc2nc(-c3ccc(Cl)c(Cl)c3)cs2)cc1` [SCPI-1, N-4-{[4-(3,4-dichlorophenyl)-1,3-thiazol-2-yl]amino}phenyl)aetamide hydrobromide] yielded an EC50 on MsSCP-2 [1] of 2200 nM. In the series with Day 3 4th instar larvae, the “NBD-cholesterol, fat body, 2 hour” value is on record as 8.01±2.84 RFU/mg proteins; the “NBD-cholesterol, fat body, 4 hour” value is 4.18±1.06 RFU/mg proteins; the “NBD-cholesterol, fat body, 6 hour” value came to 3.75±1.10 RFU/mg proteins; the “NBD-cholesterol, hemolymph, 2 hour” value is on record as 8.62±3.62 RFU/mg proteins. Besides, in the series with Day 3 4th instar larvae, the “NBD-cholesterol, hemolymph, 4 hour” value is on record as 7.04±1.37 RFU/mg proteins; the “NBD-cholesterol, hemolymph, 6 hour” value amounted to 5.63±1.62 RFU/mg proteins; the “NBD-cholesterol, midgut, 2 hour” value is listed as 22.77±3.02 RFU/mg proteins; the “NBD-cholesterol, midgut, 4 hour” value is on record as 22.61±4.57 RFU/mg proteins. The “NBD-cholesterol, midgut, 6 hour” value in the series on Day 3 4th instar larvae is 17.78±6.43 RFU/mg proteins. The molecule also displayed an EC50 on AeSCP-2 [2] of 900 nM. In [3], the “[3H]-palmatic acid uptake/levels in the midgut” value is “suppressed”. Besides, in [4], the “amount of [3H]-cholesterol in the midgut” value amounted to 555098.9 DMP/mg protein; the “[3H]-cholesterol levels in the feces, higher than in the controls” value turned out to be 265.84%; the “hemolymph [3H]-cholesterol levels versus control” value is “significantly lower”. In addition, in series [4] (fat body), the “suppression of cholesterol storage (stored [3H]-cholesterol) in the fat body” value amounted to 37% and the “accumulation of [3H]-cholesterol in the fat body versus controls” value was “significantly lower”. Moreover, the “amount of labeled cholesterol in the hemolymph” value in series [4] (SCPI at LD50 dosage in diet) turned out to be 28087.6 DPM/mg protein. Further, in [4] (midgut, 2 hour time point, SCPI at LD50 dosage in diet), the “total [3H]-cholesterol in the midgut tissue compared with the control group” value was “slightly lower”. For the same molecule, the “total amount of [3H]-cholesterol in the midgut tissue versus controls” value in series [4] (midgut) is listed as “significantly lower”. Besides, the “suppression of cholesterol uptake” value with Manduca sexta GV1 cells was 15%.
